This is an account of results in EPA's ToxValDB 9.5.

This series has as its system Rattus norvegicus. The following applies: for LD50 / LC50: acute.
The mark [1] stands for this setting: subchronic, duration: 90 days, oral, gavage, Sprague-Dawley.
[2] abbreviates: subchronic, duration: 90 days, oral, diet, Sprague-Dawley.

Broadly, the LD50 is the dose expected to kill half of the subjects tested. A higher LD50 goes with a less toxic substance. The term NOAEL denotes the highest dose or exposure tested at which no adverse effect was seen. The LOAEL is the lowest dose or exposure tested at which an adverse effect was seen.

“And” between values parts separate entries of the source, which are not always exact repeats. Identical values can stand only once.

Take `CCN(CC)c1ccc2c(c1)Oc1cc(C)c(Nc3ccccc3)cc1C21OC(=O)c2ccccc21` (centres undefined): under “oral, gavage, Sprague-Dawley”, the LD50 was > 2000 mg/kg.

Regarding `COC` [Dimethyl ether], for the setting “inhalation, Sprague-Dawley”, the LC50 came out at 309000 mg/m3.

In the case of `COc1ccc(O)cc1` [4-Methoxyphenol], the NOAEL came to 40 mg/kg-day (developmental, dermal) and 40 mg/kg-day (reproduction developmental, dermal, F).

For `CCN(CC)c1ccc(C(=O)c2ccccc2C(=O)O)c(O)c1` [2-[4-(Diethylamino)-2-hydroxybenzoyl]benzoic acid], the LD50 (oral, gavage, Sprague-Dawley) was > 5000 mg/kg.

The compound `CCCC` [Butane] yielded an NOAEL (reproduction developmental, inhalation, Sprague-Dawley) of 21400 mg/m3.

`CCCCCCC1C=CC(CCCCCCCC(=O)O)CC1C(=O)O` (centres undefined) [5(6)-Carboxy-4-hexyl-2-cyclohexene-1-octanoic acid] came in with an LD50 (oral, gavage, Sprague-Dawley) of 6180 mg/kg.

Regarding `CS(=O)(=O)O` [Methanesulfonic acid], the LD50 (oral) is ≥ 200 mg/kg and ≤ 400 mg/kg.

Turning to `CCCCCCCC/C=C\CCCCCCCC#N` [(Z)-9-Octadecenenitrile], the LD50 (oral, gavage, Sprague-Dawley) is > 5000 mg/kg.

On to `CC(C)(c1ccccc1)c1ccc(O)cc1` [4-Cumylphenol], for which the LD50 was determined as 1770 mg/kg (oral, Sprague-Dawley) and 1770 mg/kg (oral, gavage, Sprague-Dawley).

On to `COc1ccccc1NC(=O)CC(C)=O` [N-(2-Methoxyphenyl)-3-oxobutanamide], for which the LD50 (oral, gavage, Crj:CD) amounted to 1640 mg/kg.

Turning to `CCN(CC#N)c1cccc(C)c1` [2-(Ethyl(3-methylphenyl)amino)acetonitrile], the NOAEL reads like this: (developmental, duration: 38 days, oral, gavage, Sprague-Dawley) 150 mg/kg-day; (reproduction developmental, duration: 38 days, oral, gavage, Sprague-Dawley, generation: F0) 25 mg/kg-day; (reproduction developmental, duration: 38 days, oral, gavage, Sprague-Dawley, generation: F1) 150 mg/kg-day.

Consider `CC(CN)CCCN` (centres undefined) [2-Methylpentanediamine], for which the LC50 (inhalation, CRL:CD BR) was 4.1 µg/mL and 2.9 µg/mL. For the same compound, the LD50 (oral, gavage, Crl:CD(SD)) was 1690 mg/kg. Also, the NOAEL is, setting by setting: (short-term, duration: 28 days, oral, diet, F, CRL:CD BR) 3000 ppm; (short-term, duration: 28 days, oral, diet, M, CRL:CD BR) 10000 ppm.

`CCCCCCCCCCCCOCCOS(=O)(=O)[O-].[Na+]` yielded an LD50 (oral) of 1600 mg/kg.

Regarding `c1ccc(B(c2ccccc2)c2ccccc2)cc1` [Triphenylborane], the LD50 (oral, gavage, Sprague-Dawley) turned out to be 196 mg/kg.

Consider `NNC(=S)NN` [Thiocarbazide], for which the LD50 (dermal, Wistar) was > 500 mg/kg. The LC50 (inhalation, Wistar) was 50 mg/m3 and > 75.5 mg/m3.

Turning to `Clc1cccc(Cl)c1` [1,3-Dichlorobenzene], where the note is “oral, gavage, Sprague-Dawley”, the LD50 is 1200 mg/kg and 1100 mg/kg and 1000 mg/kg. The NOAEL is 200 mg/kg-day (reproduction developmental, duration: 10 days, oral, gavage, F, Sprague-Dawley); 200 mg/kg-day (reproduction developmental, duration: 10 days, oral, gavage, Sprague-Dawley, generation: F1); 147 mg/kg-day (reproduction developmental, duration: 90 days, oral, gavage, Sprague-Dawley, generation: F0); 37 mg/kg-day under setting [1]. Further, under setting [1], the LOAEL turned out to be 147 mg/kg-day.

In the case of `O=C(Cl)C(Cl)Cl` [Dichloroacetyl chloride], the LD50 (oral) turned out to be 2460 mg/kg. For the setting “subchronic, duration: 30 days, inhalation, Sprague-Dawley”, the NOAEL is 6.03 mg/m3.

Turning to `c1ccc(-c2ccccc2-c2ccccc2)cc1` [o-Terphenyl], the “LOAEL (% diet)” value (short-term, duration: 14 days, oral, diet, Wistar) was 0.2. For the same compound, the NOAEL (subchronic, duration: 30 days, oral, diet, Sprague-Dawley) was 100 mg/kg-day.

With `CCC(C)Nc1ccc(NC(C)CC)cc1` (centres undefined) [N,N'-Bis(1-methylpropyl)-1,4-benzenediamine], the LC50 (inhalation, Sprague-Dawley) was > 0.2 µg/mL. The compound further yielded an LOAEL (short-term, duration: 28 days, oral, gavage, Sprague-Dawley) of 10 mg/kg-day. In addition, under setting [2], the LOAEL was 500 mg/kg-day and the NOAEL was found to be 100 mg/kg-day.

As to `OCCN1CCNCC1` [1-Piperazineethanol], under “oral, gavage”, the LD50 amounted to 2000 mg/kg. Further, the NOAEL is, setting by setting: (short-term, duration: 7 days, oral, diet, F, Wistar) 1610 mg/kg-day; (short-term, duration: 7 days, oral, diet, M, Wistar) 3720 mg/kg-day.

Regarding `O=c1c2ccccc2[nH]c2cc3c(=O)c4ccccc4[nH]c3cc12` [5,12-Dihydroquino[2,3-b]acridine-7,14-dione], under “inhalation, Crl:CD(SD)”, the LC50 is ≥ 3.1 µg/mL. The LD50 (oral, gavage, albino) is ≥ 7500 mg/kg.

For `CC(COCC(C)OC(=O)c1ccccc1)OC(=O)c1ccccc1` (centres undefined) [Dipropylene glycol, dibenzoate], the LD50 (dermal, Sprague-Dawley) was > 2000 mg/kg; the LD50 (oral, Sprague-Dawley) is 5070 mg/kg and 3300 mg/kg and 3910 mg/kg. Moreover, the NOAEL (developmental, duration: 13 days, oral, gavage, Sprague-Dawley) was 500 mg/kg-day and 250 mg/kg-day; the NOAEL (reproduction developmental, duration: 38 weeks, oral, diet, Sprague-Dawley, generation: F0) is 10000 ppm; the NOAEL (reproduction developmental, duration: 38 weeks, oral, diet, Sprague-Dawley, generation: F1) was 10000 ppm; the NOAEL (reproduction developmental, duration: 13 days, oral, gavage, F, Sprague-Dawley) came to 1000 mg/kg-day; the NOAEL (subchronic, duration: 13 weeks, oral, diet) was found to be 1000 mg/kg-day.
